Values joined by “and” are separate entries in the source; they are usually repeats but may differ in a detail not shown here. Equal values may be shown once.
Key:
[1] = beta-carotene-linoleate assay; assay type: biochemical; details: for % A470 nm: 12 μM, after 180 min incubation at 50° C.; for protection of linoleic acid from oxidation: 50° C., 180 min, 470 nm
Source text: The ability of the dendritic antioxidants 1, 2, and 3 to protect linoleic acid against free radical damage was examined by the beta-carotene-linoleate model (Jayaprakasha, G. K., et al. Food Chem. 2001, 73, 285, incorporated herein by reference in its entirety). In the absence of an antioxidant, hydroperoxides formed from linoleic acid oxidation bleach the highly unsaturated beta-carotene by a free-radical-mediated phenomenon. The bleaching of the reddish-orange color of beta-carotene was monitored at 470 nm in the presence of various concentrations of antioxidant. The % absorbance (corrected for control without antioxidant) was determined at each antioxidant concentration after incubation at 50° C. for 180 min. The % A470 nm values were determined as follows: % A470 nm=[(At(180 min)/At(0 min))×100]−[(Ac(180 min)/Ac(0 min))×100], wherein At(180 min)=absorbance at 470 nm of antioxidant sample incubated at 50° C. for 180 min, At(0 min)=absorbance at 470 nm of antioxidant sample incubated at 50° C. for 0 min, Ac(180 min)=absorbance at 470 nm of control sample (without antioxidant) incubated at 50° C. for 180 min, and Ac(0 min)=absorbance at 470 nm of control sample (without antioxidant) incubated at 50° C. for 0 min. […] In FIG. 24, protection of linoleic acid from oxidation by various antioxidants is shown for compound 1 (□), compounds 2 and 3 (•), quercetin (x), and Trolox (Δ).

DPPH radical assay = assay: DPPH radical assay
Method: The DPPH assay was one of three electron transfer (ET) assays used to determine the antioxidant potential of compound 1 (described in Example 6) in comparison to its monomeric counterpart (syringaldehyde) as well as popular antioxidants. In an ET assay, an antioxidant donates electron(s) to a molecular probe, thus reducing it. From the assay, thermodynamic conversion of antioxidant to antioxidant radical (oxidation) is measured during a fixed time period.
The reduction of DPPH radical was determined for ascorbic acid, Trolox, syringaldehyde, and the compound 1 described in Example 6 as previously reported (Brand-Williams, et al. Lebensm.-Wiss U.-Technol. 1995, 28, 25-30, incorporated herein by reference in its entirety). In the DPPH assay, DPPH• radical was reduced by the antioxidant in methanol (Brand-Williams, et al. Lebensm.-Wiss U.-Technol. 1995, 28, 25-30, incorporated herein by reference in its entirety). […] The DPPH reagent was made in methanol. Antioxidant sample (10 μL) was added to 1.0 mL of reagent and the absorbance was monitored at 515 nm until a plateau was reached. Antioxidant concentrations were 50 μM syringaldehyde, 12.5 μM Trolox and ascorbic acid, and 5 μM compound 1. All samples were made in methanol and run in triplicates at room temperature.
The DPPH• scavenging capacity of each antioxidant was evaluated from the plot of the percentage DPPH• remaining when the kinetics reached a steady state as a function of the molar ratios of antioxidant to DPPH•. […] Using the curve, EC50 (the amount of antioxidant necessary to decrease the initial DPPH• concentration by 50%), antiradical power (1/EC50, ability to reduce the DPPH•), reaction stoichiometry (EC50×2, the concentration of antioxidant required to reduce 100% of DPPH• radical), and the number of reduced DPPH• per antioxidant molecule (1/stoichiometry) for each antioxidant were calculated as previously described (Brand-Williams, et al. Lebensm.-Wiss U.-Technol. 1995, 28, 25-30, incorporated herein by reference in its entirety) and are depicted in Table 1.
Antioxidant capacity of the compounds was assessed by the DPPH assay (Brand-Williams, et al. Lebensm. Wiss. Technol. 1995, 28, 25, incorporated herein by reference in its entirety). […] In FIG. 22, control with methanol is (X, dashed); compound 1 is (□), compound 2 is (•), compound 3 is (◯), and Trolox (Δ). All antioxidant concentrations were 5 μM.
The free-radical scavenging ability of the antioxidants was evaluated by the DPPH assay, as described above in Example 7.

[2] = FRAP assay (reduction of Fe(III) to Fe(II)); assay type: biochemical; parameters: Slope of ΔA593 versus concentration: unit not given here; details: for Slope of ΔA593 versus concentration: 37° C.
Method: The FRAP assay was performed as previously described (Pulido, et al. J. Agric. Food Chem. 2000, 48, 3396-3402, incorporated herein by reference in its entirety). In the FRAP assay, ferric was reduced by the antioxidant to ferrous via electron transfer (Benzie et al., Anal. Biochem. 1996, 239, 70-76, incorporated herein by reference in its entirety). This assay measured the redox potential of an antioxidant which is used as an estimate of antioxidant efficiency and expressed as a FRAP value. […] The compound 1 as well as the other antioxidants was dissolved in methanol. […] Reaction kinetics of the compound 1 and other antioxidants were obtained by plotting the change in slopes at various times and are shown in FIG. 18. […] This time-dependent increase in absorbance was previously reported (Pulido, et al. J. Agric. Food Chem. 2000, 48, 3396-3402, incorporated herein by reference in its entirety) and was especially significant with polyphenolic compounds. […] However, the FRAP value increased with time, reaching 2.5 in 60 min. […] J. Agric. Food Chem. 2000, 48, 3396-3402, incorporated herein by reference in its entirety). […] EC1 values, and therefore ferric reducing ability, were lower at longer reaction times as expected from the kinetic behavior of the antioxidants (Pulido, et al. J. Agric. Food Chem. 2000, 48, 3396-3402, incorporated herein by reference in its entirety).

[3] = ABTS radical cation decolorization assay; assay type: biochemical
Source text: We have tested AO activity of G1 (13) using ABTS as a radical source using a previously reported spectroscopic assay. The AO activity of the G1 (13) was compared to those of syringaldehyde, gallic acid, and vitamin C. If the phenolic OH group is the radical scavenging site, the expected AO activity of the G1 (13) should be 4 fold higher than that of syringaldehyde and 1.3 fold higher than that of gallic acid (which has three phenolic OH groups).
ABTS radical cation decolorization assay was used as previously described (Ozgen, et al. J. Agric. Food Chem. 2006, 54, 1151-1157, incorporated herein by reference in its entirety). Like the DPPH assay, this was also a decolorization assay and measured absorbance decrease at 734 nm as the ABTS radical (ABTS•+) is quenched by the antioxidant. The solvent used for the assay was ethanol. ABTS reagent was added to 1.0 mL solvent in a cuvet to bring the absorbance to 0.7. A 10 μL sample of antioxidant was then added, mixed, and the absorbance monitored at 734 nm for 6 min. Antioxidant concentrations were 14.4 μM Trolox, 11.4 μM ascorbic acid, 15.4 μM syringaldehyde, and 3 μM compound 1. The % decrease in absorbance at 6 min was plotted against antioxidant concentrations. The gradient of the line obtained by linear regression for a given antioxidant was divided by that obtained for Trolox to yield Trolox equivalent antioxidant (TEAC) values. All samples were made in ethanol and run in triplicates and at room temperature.

plasmid DNA pBR 322 = assay: Protection of plasmid DNA from AAPH damage (agarose electrophoresis); assay type: biochemical; details: 10 mM AAPH, 37° C., 4 h
Method: The effectiveness of the three compounds to protect DNA from AAPH damage was also determined. The plasmid DNA pBR 322 was incubated with AAPH (final concentration 10 mM) at 37° C. for 4 h with or without antioxidants (final concentrations, 0.35-45 μM), after which the samples were subjected to agarose electrophoresis (Sakihama, Y., et al. Toxicology 2002, 177, 67, incorporated herein by reference in its entirety). […] In the absence of AAPH, pBR 322 was mostly in its supercoiled (S) form (small amount of open circular, O, form was also visible, lane 1 FIG. 25). After reaction with AAPH, the DNA was transformed almost entirely into its open circular form (lane 2, FIG. 25). […] No protection was obtained for both compound 1 and quercetin below 5 μM (lanes 7-10, FIG. 25). […] Compound 3 as well as Trolox were ineffective at all concentrations used in the experiment (0.35-45 μM).
Protection of DNA from free radical damage by the antioxidant dendrimers (compounds 4, 5, and 1) was also evaluated. Plasmid DNA (pBR 322) samples, were incubated with AAPH (final concentration 10 mM) at 37° C. for 4 h with antioxidants (final concentrations, 0.35-45 μM) and subjected to agarose electrophoresis. […] The native DNA was mostly in its supercoiled (S) form (small amount of open circular, O, form was also visible, lane 1, FIG. 31). In the presence of AAPH, the DNA was transformed almost entirely into its O form (lane 2, FIG. 31). […] Negligible DNA protection was afforded by all three dendrimers at ≦2.5 μM (lanes 7-10, FIG. 31). Under similar conditions, Trolox as well as the starting materials for dendrimer synthesis were ineffective at all concentrations.

Human LDL = assay: Protection of LDL from AAPH oxidation (agarose gel electrophoresis); assay type: biochemical; details: 10 mM AAPH, 18 h, 37° C.
Source text: The antioxidant activity of compounds 1, 2, and 3 towards biomolecules was examined by studying their ability to protect LDL, fatty acid, and DNA from free radicals. For LDL, AAPH was used to induce free radical damage. AAPH was used instead of copper (Cu^2) ion for LDL oxidation so that the free radical scavenging activity of the antioxidants could be measured without any pro-oxidant interference caused by metal ions (Salah, N. et al. Arch. Biochem. Biophys. 1995, 322, 339, incorporated herein by reference in its entirety). All solutions were made in ultra-pure water.
Protection of LDL from AAPH free radicals by the antioxidant decreased the anodic shift in a dose-dependent manner (FIG. 23). […] The increased hydrophobicity of compound 3 may be partly responsible for its improved LDL protection over compound 2.
The antioxidant activity of the antioxidants towards biomolecules was examined by studying their ability to protect LDL, lysozyme, and DNA from free radicals. For LDL, AAPH was used to induce free radical damage. AAPH was used instead of Cu^2+ for LDL oxidation so that the free radical scavenging activity of the antioxidants could be measured without any pro-oxidant interference caused by metal ions. The oxidation of human low-density lipoprotein was used as a model for evaluating the ability of the G1 dendrimers as chain-breaking antioxidants for lipid. Oxidation of LDL leads to changes in both the lipid and the protein moieties of the lipoprotein particle. Lipid peroxidation in LDL has been evaluated by a variety of methods. Due to the complexity of events that occur in lipoprotein oxidation, the electrophoretic migration pattern of oxidized LDL is one of the best methods to evaluate the extent of lipoprotein oxidation. LDL was incubated with 20 mM AAPH and increasing concentrations of the G1 dendrimers (0-37 μM in PBS) for 21 h at 37° C. The mixture was then subjected to agarose gel electrophoresis using the Ciba Corning Clinical Electrophoresis System. The agarose gel was stained with Fat Red 7B. In FIG. 30A (top), lane 1 is native LDL, and lanes 2-8 are AAPH-oxidized LDL with 0, 37, 18.5, 9, 4.5, 2 and 1 μM compound 4, respectively. In FIG. 30B (bottom), lane 1 is native LDL, and lanes 2-8 are AAPH-oxidized LDL with 0, 37, 18.5, 9, 4.5, 2 and 1 μM quercetin or Trolox, respectively.

NCc1ccc(CN)cc1 [4-aminomethylbenzylamine]
% A470 nm [1]: 16% | quenching of DDPH• (DPPH radical assay; 40 μM final concentration in cuvet): 6%

COc1cc(C=O)cc(OC)c1O [Syringaldehyde]
% A470 nm [1]: 12% | Antioxidant Capacity Relative to Trolox, FRAP 5 min ([2]; 5 min): 2.3 | EC1 (concentration with ferric-TPTZ reducing ability equivalent to 1 mM FeSO4.7H2O) ([2]; 5 min): 194 µM | FRAP value relative to Fe(II) ([2]; 5 min): 5.1 | FRAP value relative to Fe(II) ([2]; 15 min): 6.7 | FRAP value relative to Fe(II) ([2]; 30 min): 8.4 | Antioxidant Capacity Relative to Trolox, FRAP 60 min ([2]; 60 min): 4 and 4.2 | EC1 (concentration with ferric-TPTZ reducing ability equivalent to 1 mM FeSO4.7H2O) ([2]; 60 min): 108 µM | FRAP value relative to Fe(II) ([2]; 60 min): 9.2 | Slope of ΔA593 versus concentration ([2]; Reaction time 5 min): 0.062 | Slope of ΔA593 versus concentration ([2]; Reaction time 15 min): 0.081 | Slope of ΔA593 versus concentration ([2]; Reaction time 30 min): 0.101 | Slope of ΔA593 versus concentration ([2]; Reaction time 60 min): 0.111 | # of DDPH• reduced per antioxidant molecule (1/stoichiometry) (DPPH radical assay): 0.33 | Antioxidant Capacity Relative to Trolox, DPPH (DPPH radical assay): 0.18 | DPPH assay, times weaker than Trolox (DPPH radical assay): 5.6 times | DPPH• remaining in one minute (DPPH radical assay; 50 μM syringaldehyde): 96% | time to reach plateau / steady state with DPPH• (DPPH radical assay; 50 μM syringaldehyde, 12.5 μM Trolox and ascorbic acid, 5 μM compound 1, methanol, room temperature, 515 nm): approximately 45 min | Antioxidant Capacity Relative to Trolox, ABTS [3]: 0.98 | IC50 ([3]; final concentration in the cuvet, read-out: concentration at which 50% inhibition of ABTS•+ was observed): ~11 µM | Slope of % decrease in absorbance at 6 min versus antioxidant concentration ([3]; linear regression, concentration in μM): 3.9 | TEAC ([3]; slope divided by that of Trolox, % decrease in A734 at 6 min, ethanol): 0.98

COc1cc(CN(Cc2ccc(CN(Cc3ccc(O)c(OC)c3)Cc3ccc(O)c(OC)c3)cc2)Cc2ccc(O)c(OC)c2)ccc1O [Compound 2]
protection of linoleic acid from oxidation [1]: about twice weaker than compound 1 | concentration at which some DNA protection was observed (plasmid DNA pBR 322): ≥ 45 µM

COc1cc(CN(Cc2ccc(CN(Cc3cc(I)c(O)c(OC)c3)Cc3cc(I)c(O)c(OC)c3)cc2)Cc2cc(I)c(O)c(OC)c2)cc(I)c1O [Compound 3]
protection of linoleic acid from oxidation [1]: about twice weaker than compound 1 | protection of LDL from AAPH free radicals (anodic migration) (Human LDL): better LDL protection than compound 2 | DNA protection at all concentrations used (plasmid DNA pBR 322; 0.35-45 μM): ineffective

From US8895032B2, “Dendritic nano-antioxidants” (Central Michigan University, priority 2009, dated 2014)
